# Key:
# [1] = test system: crabgrass; assay: Test B pre/postemergence crabgrass; format: in vivo, Digitaria sanguinalis
# Summary of the method: (§1)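 Test chemicals in a non-phytotoxic solvent mixture with surfactant were sprayed preemergence onto planted seeds and postemergence onto plants 2 to 18 cm tall (1- to 4-leaf stage). After twelve to sixteen days in a greenhouse, injury was visually rated against untreated controls from 0 (no effect) to 10 (complete control).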
# [2] = test system: cocklebur; assay: Test B pre/postemergence cocklebur; format: in vivo, Xanthium strumarium
# Summary of the method: as §1
# [3] = test system: bamyardgrass; assay: Test B flood test barnyardgrass; format: in vivo, Echinochloa crus-galli
# Summary of the method: (§2)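 Read-out is a visual response score from 0 (no effect) to 10 (complete control), assigned by comparison with untreated controls. Treatment was applied at the 2-leaf stage, and plants stayed in the greenhouse for twelve to sixteen days before scoring.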
# [4] = test system: soybean; assay: Test B pre/postemergence soybean; format: in vivo, Glycine max
# Summary of the method: as §1
# [5] = test system: pigweed; assay: Test B pre/postemergence pigweed; format: in vivo, Amaranthus retroflexus
# Summary of the method: as §1
# [6] = test system: sugar beet; assay: Test B pre/postemergence sugar beet; format: in vivo, Beta vulgaris
# Summary of the method: as §1
# [7] = test system: blackgrass; assay: Test B pre/postemergence blackgrass; format: in vivo, Alopecurus myosuroides
# Summary of the method: as §1
# [8] = test system: duck salad; assay: Test B flood test duck salad; format: in vivo, Heteranthera limosa
# Summary of the method: as §2
# [9] = test system: morningglory; assay: Test B pre/postemergence morningglory; format: in vivo, Ipomoea hederacea
# Summary of the method: as §1
# [10] = test system: surinam grass; assay: Test B pre/postemergence surinam grass; format: in vivo, Brachiaria decumbens
# Summary of the method: as §1
# [11] = test system: rape; assay: Test B pre/postemergence rape; format: in vivo, Brassica napus
# Summary of the method: as §1
# [12] = test system: rice; assay: Test B flood test rice; format: in vivo, Oryza sativa; conditions: for Rice plant response rating: Postemergence section (flood test species)
# Summary of the method: as §2
# [13] = test system: wild oat; assay: Test B pre/postemergence wild oat; format: in vivo, Avena fatua
# Summary of the method: as §1
# [14] = test system: velvetleaf; assay: Test B pre/postemergence velvetleaf; format: in vivo, Abutilon theophrasti
# Summary of the method: as §1
# [15] = test system: corn; assay: Test B pre/postemergence corn; format: in vivo, Zea mays
# Summary of the method: as §1
# [16] = test system: giant foxtail; assay: Test B pre/postemergence giant foxtail; format: in vivo, Setaria faberii
# Summary of the method: as §1
# [17] = Postemergence, Rate 250 g/ha, scale 0 to 10, 0 is no effect, 10 is complete control
# [18] = Postemergence, Rate 500 g/ha, scale of 0 to 10 where 0 is no effect and 10 is complete control
# [19] = Preemergence, Rate 62 g/ha, scale 0 to 10 (0 no effect, 10 complete control)
# [20] = Preemergence, Rate 125 g/ha, scale of 0 to 10 where 0 is no effect and 10 is complete control
# [21] = Preemergence, Rate 500 g/ha, scale 0 to 10, 0 is no effect, 10 is complete control
# [22] = Rate 62 g/ha, Postemergence, scale of 0 to 10 where 0 is no effect and 10 is complete control
# [23] = Rate 125 g/ha, Postemergence, scale 0 to 10, 0 is no effect, 10 is complete control
# [24] = Preemergence, Rate 250 g/ha, scale 0 to 10, 0 is no effect, 10 is complete control
# [25] = Postemergence section (flood test species), Rate 500 g/ha, scale of 0 to 10 where 0 is no effect and 10 is complete control
# [26] = Rate 62 g/ha, Postemergence (flood test species), scale of 0 to 10 where 0 is no effect and 10 is complete control
# [27] = Rate 125 g/ha, Postemergence section (flood test species), scale 0 to 10, 0 is no effect, 10 is complete control
# [28] = flood test species, listed under Postemergence, Rate 250 g/ha, scale 0 to 10, 0 is no effect, 10 is complete control
# [29] = Preemergence, Rate 250 g/ha, scale of 0 to 10 where 0 is no effect and 10 is complete control
structure (smiles),measurement,setting,value
CC(C)N(C(=O)n1oc(=O)n(CCl)c1=O)c1ccccc1 [Compound 423],"Plant response rating, Crabgrass",[1]; [17],0
same,Crabgrass plant response rating,[1]; [18],1
same,"Plant response rating, Crabgrass",[1]; [19],0
same,"Plant response rating, Crabgrass",[1]; [20],0
same,Crabgrass plant response rating,[1]; [21],2
same,Crabgrass plant response rating,[1]; [22],0
same,Crabgrass plant response rating,[1]; [23],0
same,"Plant response rating, Cocklebur",[2]; [17],0
same,Cocklebur plant response rating,[2]; [18],0
same,"Plant response rating, Cocklebur",[2]; [19],0
same,"Plant response rating, Cocklebur",[2]; [20],0
same,Cocklebur plant response rating,[2]; [24],0
same,Cocklebur plant response rating,[2]; [21],0
same,Cocklebur plant response rating,[2]; [22],0
same,Cocklebur plant response rating,[2]; [23],0
same,Barnyardgrass plant response rating,[3]; [25],0
same,Barnyardgrass plant response rating,[3]; [26],0
same,Barnyardgrass plant response rating,[3]; [27],0
same,"Plant response rating, Barnyardgrass",[3]; [28],0
same,"Plant response rating, Soybean",[4]; [17],2
same,Soybean plant response rating,[4]; [18],2
same,"Plant response rating, Soybean",[4]; [19],0
same,"Plant response rating, Soybean",[4]; [20],0
same,Soybean plant response rating,[4]; [24],0
same,Soybean plant response rating,[4]; [21],0
same,Soybean plant response rating,[4]; [23],2
same,"Plant response rating, Redroot pigweed",[5]; [17],0
same,Redroot pigweed plant response rating,[5]; [18],0
same,"Plant response rating, Redroot pigweed",[5]; [19],0
same,"Plant response rating, Redroot pigweed",[5]; [20],0
same,Redroot pigweed plant response rating,[5]; [24],0
same,Redroot pigweed plant response rating,[5]; [21],0
same,Redroot pigweed plant response rating,[5]; [23],0
same,"Plant response rating, Sugarbeets",[6]; [17],0
same,Sugarbeets plant response rating,[6]; [18],0
same,"Plant response rating, Sugarbeets",[6]; [19],0
same,"Plant response rating, Sugarbeets",[6]; [20],0
same,Sugarbeets plant response rating,[6]; [24],0
same,Sugarbeets plant response rating,[6]; [21],0
same,Sugarbeets plant response rating,[6]; [23],0
same,"Plant response rating, Blackgrass",[7]; [17],0
same,Blackgrass plant response rating,[7]; [18],2
same,"Plant response rating, Blackgrass",[7]; [19],0
same,"Plant response rating, Blackgrass",[7]; [20],0
same,Blackgrass plant response rating,[7]; [29],0
same,Blackgrass plant response rating,[7]; [21],0
same,Blackgrass plant response rating,[7]; [22],0
same,Blackgrass plant response rating,[7]; [23],0
same,Ducksalad plant response rating,[8]; [25],0
same,Ducksalad plant response rating,[8]; [26],0
same,Ducksalad plant response rating,[8]; [27],0
same,"Plant response rating, Ducksalad",[8]; [28],0
same,Morningglory plant response rating,[9]; [18],8
same,"Plant response rating, Morningglory",[9]; [19],0
same,"Plant response rating, Morningglory",[9]; [20],0
same,Morningglory plant response rating,[9]; [24],0
same,Morningglory plant response rating,[9]; [21],0
same,Morningglory plant response rating,[9]; [23],2
same,"Plant response rating, B. signalgrass",[10]; [17],0
same,B. signalgrass plant response rating,[10]; [18],0
same,"Plant response rating, B. signalgrass",[10]; [19],0
same,"Plant response rating, B. signalgrass",[10]; [20],0
same,B. signalgrass plant response rating,[10]; [29],0
same,B. signalgrass plant response rating,"[10]; Preemergence, Rate 500 g/ha, scale of 0 to 10 where 0 is no effect and 10 is complete control",0
same,B. signalgrass plant response rating,[10]; [22],0
same,B. signalgrass plant response rating,[10]; [23],0
same,"Plant response rating, Rape",[11]; [17],0
same,Rape plant response rating,[11]; [18],0
same,"Plant response rating, Rape",[11]; [19],0
same,"Plant response rating, Rape",[11]; [20],0
same,Rape plant response rating,[11]; [24],0
same,Rape plant response rating,[11]; [21],0
same,Rape plant response rating,[11]; [23],0
same,Rice plant response rating,"[12]; Rate 500 g/ha, scale of 0 to 10 where 0 is no effect and 10 is complete control",0
same,Rice plant response rating,"[12]; Rate 125 g/ha, scale 0 to 10, 0 is no effect, 10 is complete control",0
same,"Plant response rating, Rice",[12]; [28],0
same,Wild oats plant response rating,[13]; [18],0
same,"Plant response rating, Wild oats",[13]; [19],0
same,"Plant response rating, Wild oats",[13]; [20],0
same,Wild oats plant response rating,[13]; [24],0
same,Wild oats plant response rating,[13]; [21],0
same,Wild oats plant response rating,[13]; [23],0
same,"Plant response rating, Velvetleaf",[14]; [17],0
same,Velvetleaf plant response rating,[14]; [18],0
same,"Plant response rating, Velvetleaf",[14]; [19],0
same,"Plant response rating, Velvetleaf",[14]; [20],0
same,Velvetleaf plant response rating,[14]; [24],0
same,Velvetleaf plant response rating,[14]; [21],0
same,Velvetleaf plant response rating,[14]; [23],0
same,"Plant response rating, Corn",[15]; [17],0
same,Corn plant response rating,[15]; [18],0
same,"Plant response rating, Corn",[15]; [19],0
same,"Plant response rating, Corn",[15]; [20],0
same,Corn plant response rating,[15]; [24],0
same,Corn plant response rating,[15]; [21],0
same,Corn plant response rating,[15]; [22],0
same,Corn plant response rating,[15]; [23],0
same,"Plant response rating, Giant foxtail",[16]; [17],0
same,Giant foxtail plant response rating,[16]; [18],2
same,"Plant response rating, Giant foxtail",[16]; [19],0
same,"Plant response rating, Giant foxtail",[16]; [20],0
same,Giant foxtail plant response rating,[16]; [24],3
same,Giant foxtail plant response rating,[16]; [21],4
same,Giant foxtail plant response rating,[16]; [22],0
same,Giant foxtail plant response rating,[16]; [23],0
